The target in one assay is h5-HT7R (Homo sapiens (Human), UniProt P34969). Nature of the assay: ERK1/2 and c-SRC phosphorylation by western blot in HEK-293 cells stably expressing h5-HT7R. Format: cell-based. How it is done: (A, B, C, D, E, F) Time course of activation of ERK1/2 after stimulation of HEK-293 cells stably expressing h5-HT7R with various 5-HT7R ligands used at 10 μM. The cells were stimulated for the indicated periods and assayed for detection of phospho ERK1/2 by western blot analysis. […] Representative blots of three independent experiments are illustrated. The histogram on the right of each panel represents the results of densitometric analyses of three independent experiments. Data are means±SEM. * p<0.05; ** p<0.01; *** p<0.001 versus non stimulated cells (NS).
HEK-293 cells stably expressing h5-HT7R were stimulated with increasing concentrations of 5-CT or Serodolin for 7 minutes. Cells were lysed, and western blot analysis was performed. Representative Western blots from three independent experiments were shown in A-C. Quantification was performed by densitometric analyses from three independent experiments. Analyzed data were plotted versus log concentration for each compounds (A; B) or as bar graph (C) on the right panel.
Time course of activation of ERK1/2 after stimulation of HEK-293 cells stably expressing h5-HT7R with JLB060, a 5-HT7R ligand used at 10 μM. The cells were stimulated for the indicated periods and assayed for detection of phospho ERK1/2 by western blot analysis.
(§1) Treated cells were washed twice with cold PBS and lysed on ice for 30 min in lysis buffer containing 50 mM Tris pH 7.5, 150 mM NaCl, 10 mM EDTA, 1% Triton X-100 and the protease inhibitor cocktail. Cell lysates were centrifuged at 10,000×g for 10 min. Supernatant was then solubilized in Laemmli buffer with 0.1% β-mercaptoethanol. Samples were resolved by electrophoresis on 10% SDS-PAGE, and transferred electrophoretically to polyvinylidene fluoride (PVDF) membranes (GE Healthcare Life Sciences). […] membranes were washed in Tris-buffered saline (TBS; pH 7.4) containing 0.1% Tween-20 (TBS-T; 0.1%) and blocked with 5% (w/v) dry milk TBS-T 0.1% for 30 min. […] Blots were probed with anti-arrestin, anti-Phospho-ERK or anti-ERK antibody (1:2000), anti Phospho-SRC, anti SRC antibody, anti-HA or anti-GFP or anti-actin antibodies. Horseradish-peroxidase-conjugated goat anti-rabbit, anti-mouse or anti-rat antibodies (1:33,000) were used as secondary antibodies. Immunoreactive bands were detected using the Dura detection kit. Protein quantification on blots was performed using Quantity One software (Biorad).
as §1, with “12%” for “10%”, “with” for “with anti-arrestin,”, “anti-Phospho-ERK (1:2000)” for “anti-Phospho-ERK”, “anti-GAPDH” for “anti-ERK”, “(1:5000). […]” for “(1:2000), anti Phospho-SRC, anti SRC antibody, anti-HA or anti-GFP or anti-actin antibodies. Horseradish-peroxidase-conjugated goat anti-rabbit, anti-mouse or anti-rat antibodies (1:33,000) were used as secondary antibodies.”
ERK phosphorylation was monitored by western blotting after treatment of cells with 10 μM of ligands at different times ranging from 2 to 60 minutes.

The test system of assay [1] is mice. Nature of the assay: Acetic acid-induced writhing test. In kind it is in vivo. How it is done:
(§2) FIG. 9: Analgesic effect of Serodolin in the acetic acid-induced writhing test. In this test, nociception was induced by an intraperitoneally injection (ip) of 0.1 ml/10 g acid acetic solution (10 ml/kg) in peripheral origin. Serodolin at increasing dosage was administrated by oral (po), intravenous (iv) or subcutaneous (sc) route before acid acetic injection (upper panel). Positive control animals were pretreated morphine (3 mg/kg, sc) 10 minutes before acetic acid. Five minutes after i.p. injection of acetic acid the number of writhing was recorded for 10 minutes. Data mean±SEM of values obtained from a representative experiment (n=10 animals/group). ****p<0.0001 ***p<0.001 **p<0.01 *p<0.05 as compared with the control group (Vh).
as §2, with “16:” for “9:”, “MOA51” for “Serodolin”, “i.p.injection” for “i.p. injection”, “animals/group).” for “animals/group). ****p<0.0001 ***p<0.001”, “**p<0.01” for “**p<0.01 *p<0.05”
Writhing tests: Mice (25-35 g). Groups of mice (n=10) received by oral, subcutaneous or intravenous route Serodolin at different doses (0.1-10 mg/kg) one hour before intraperitoneally injection of 1% acetic acid in a volume of 10 ml/kg. Control group received vehicle (10 ml/kg, solution of 20% DMSO and 5% tween 80). The test was carried out 5 minutes later after acid acetic injection. The characteristic writhing responses have been observed individually and counted for 10 minutes.
Analgesic activity was first evaluated using the acetic acid abdominal constriction test (writhing test), a chemical model of visceral pain. We evaluated the dose-response effect of Serodolin following single oral, intravenous and subcutaneous administration of the compound one hour before injection of acetic acid.
Analgesic activity was evaluated using the acetic acid abdominal constriction test (writhing test), a chemical model of visceral pain. We evaluated the dose-response effect of MOA51 following single oral, intravenous and subcutaneous administration of the compound one hour before injection of acetic acid. MOA51 administered by the oral route induced statistically significant dose-dependent decreases in the number of writhings at and above the dose of 1 mg/kg. By the intravenous route, MOA51 induced dose-dependent decreases in the number of writhings at and above the dose of 0.1 mg/kg.
Background: An intraperitoneal irritant provokes the stretching counted in writhing tests.

Assay [2] concerns mice. The experiment in a line: CFA-induced mechanical hypersensitivity, Von Frey filament test. The following applies: 5 mg/kg, s.c. Format: in vivo.
Experimental: Mechanical hypersensitivity was evaluated after CFA intraplantar injection by using the Von Frey test. […] Mechanical hypersensitivity was performed 24 hrs later (pre-treatment) CFA intraplantar injection into the left hind paw (ipsilateral paw). […] The ligand effects (E55888 or Serodolin) were evaluated 30 min and 24 hrs after in the ipsilateral paw. Data are means±SEM of values obtained in 2 independent experiments (n=8 to 10 per group). ****p<0.0001 ***p<0.001 **p<0.01 *p<0.05. Statistical analysis was done using Kruskal Wallis test.
Von Frey filament test. Before inducing peripheral inflammation, each animal was tested on the left hind paw with Von Frey Filament to determine its basal sensibility level. Then, peripheral inflammation was induced by intraplantar injection of Complete Freund's Adjuvant (CFA-10 μL) (F5881, Sigma) in the left hind paw (ipsilateral paw) and mechanical allodynia was measure (pre-treatment). Mice were divided into two groups, one with E55888 (5 mg/kg) and the other with Serodolin (5 mg/kg) subcutaneous injections in the ipsilateral paw. Both in absence (−) or in presence (+) of the 5-HT7R antagonist SB269960 (5 mg/kg), intraperitoneally, 20 min before the agonist injections (8-10 mice per group).
The inventors wanted to evaluate the effect of Serodolin on mechanical hypersensitivity in comparison with E-55888 after CFA injection.
The test system of the next assay is HEK-293 mock cells. The experiment in a line: Control in mock-transfected HEK-293 cells (cAMP, ERK phosphorylation). Format: cell-based, human. How it is done:
ERK phosphorylation was monitored by western blotting after treatment of cells with 10 μM of ligands at different times ranging from 2 to 60 minutes. […] The kinetics of ERK phosphorylation elicited by 5-CT, Serodolin and MOA-51 were very similar: activation was fast and transient, and reached a pick between 2 and 7 minutes after drug exposure. However, ERK phosphorylation-induced by Serodolin and MOA-51 was more protracted compared to 5-CT, the reference agonist.

Chain of h5-HT7R (P34969 1-432): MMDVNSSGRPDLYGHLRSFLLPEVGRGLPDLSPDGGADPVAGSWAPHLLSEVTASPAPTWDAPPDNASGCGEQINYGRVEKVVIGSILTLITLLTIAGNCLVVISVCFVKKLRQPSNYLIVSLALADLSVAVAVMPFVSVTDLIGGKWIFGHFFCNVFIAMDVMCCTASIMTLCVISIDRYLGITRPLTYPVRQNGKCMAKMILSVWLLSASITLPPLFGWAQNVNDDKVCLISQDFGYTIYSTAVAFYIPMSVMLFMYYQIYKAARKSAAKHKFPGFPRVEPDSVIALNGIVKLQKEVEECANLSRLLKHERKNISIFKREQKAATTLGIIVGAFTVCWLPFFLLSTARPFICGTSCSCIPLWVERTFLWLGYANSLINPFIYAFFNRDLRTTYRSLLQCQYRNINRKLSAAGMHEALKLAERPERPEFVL

With `O=c1[nH]c2ccccc2n1CN1CCN(c2ccc(F)cc2)CC1` [Serodolin], the “induction of ERK phosphorylation” value at h5-HT7R (10 μM of ligand or increasing concentrations, western blot) was “concentration-dependent increase of ERK phosphorylation”. For the same compound, the “ERK phosphorylation at the maximal effect” value on h5-HT7R (10 μM of ligand, 2 to 60 minutes) is given as 409±34 % of control. On h5-HT7R (western blot, 7 minutes), the “phosphorylation of c-SRC kinase at Tyr416” value is “induced only after activation of 5-HT7R by Serodolin”. Further, the “inhibition of the writhing assay response” value in the assay on mice [1] (at the highest dosage) is “up to 87%”. Also, in the assay on mice [1] (s.c., one hour before acetic acid), the “dose giving significant decrease in number of writhings, subcutaneous route” value is reported as 0.1 mg/kg. Also, the “CFA-induced mechanical hypersensitivity, 30 minutes after administration” value in the assay on mice [2] (30 minutes) was “Significantly decreased paw withdrawals thresholds (anti-allodynia)”. Moreover, in the assay with mice [2] (24 hrs), the “anti-allodynic effect 24 later” value is listed as “still significant”. Also, in the assay with HEK-293 mock cells, the “ERK phosphorylation in HEK-293 mock cells” value is listed as “neither Serodolin, nor MOA-51 were able to induce ERK phosphorylation”.

(Values after US20240199555A1, “APPLICATIONS OF BIASED LIGANDS OF THE SEROTONIN 5-HT7 RECEPTOR FOR THE TREATMENT OF PAIN, MULTIPLE SCLEROSIS AND THE CONTROL OF THERMOREGULATION” (Centre National de la Recherche Scientifique, priority 2021, published 2024).)
